Measurements published in US20230099969A1, “TWO-PHOTON FLUORESCENT PROBE COMPOUND SELECTIVE FOR AMYLOID BETA PLAQUES AND METHOD FOR IMAGING AMYLOID BETA PLAQUES USING SAME” (Korea University Research and Business Foundation, priority 2020, published 2023).
Values after ≈ are worked out from the molar mass of the structure shown.

Assays:
Aβ fibrils (Aβ1-42) = target: T1, Aβ fibrils (Aβ1-42) (Homo sapiens, UniProt P05067); assay: Aβ1-42 saturation titration (fluorescence at 566 nm); assay type: binding
T1 construct: lyophilized Aβ1-42 peptides were dissolved in 100% HFIP; purchased GenicBio Limited (Shanghai, China)
Method: (§1) Aβ1-42 protein was prepared following a literature procedure (J. Hatai, L. Motiei, D. Margulies, J. Am. Chem. Soc. 2017, 139, 2136-2139). Briefly, lyophilized Aβ1-42 peptides were dissolved in 100% HFIP (1,1,1,3,3,3-hexafluoro-2-isopropanol) at a concentration of 2 mg mL^−1 and incubated at 25° C. for 2 h. After incubation, solution was removed under a gentle flow of argon. The peptide was dried using a lyophilizer for 40 h. AO (1 mg) was resuspended in aqueous NaOH (0.5 mL, 2 mM) and sonicated at 0° C. for 10 min. HFIP/NaOH-treated AO samples were diluted to 200 μM with PBS (0.6 mL, […], pH=7.4) and agitated using a shaker (Biofree) for 30 h. The solution was diluted to 20 μM with PBS (9.9 mL, 20 mM, pH=7.4), prior to each experiment.
Both Aβ1-42 and IRI-1 are virtually non-fluorescent, and a simplified formula can be used where the fluorescence intensity is directly proportional to the concentration of the (Aβ1-42-IRI-1) complex only:
With F: a fluorescence proportionality factor, [IRI1]: the initial concentration of IRI-1, [Aβ]: the initial concentration of Aβ1-42, N: the number of equivalent binding sites on the Aβ fibril relative to Aβ monomer, and Kd: the dissociation constant.
The results in FIG. 1D were obtained following a multi-parameter optimization of the experimental results following the fluorescence intensity at 566 nm, using a concentration of 10 μM Aβ1-42 and incremental concentrations of IRI-1 in PBS containing 2% DMF. The slit width was set at 3/3. The best fittings were obtained for N=¼, i.e. one binding site per 4 Aβ1-42, consistent with the hypothesized high affinity cross-β-sheet binding site on the protein fibril.

[1] = Fluorescence response to potential interferents; conditions: metal ions, amino acids, thiols 20 μM in PBS, λem 566 nm
Method: (§2) To measure spectra in the presence of analytes, stock solutions of ThT and IRI-1 were prepared in DMF and added to solutions of the analytes in PBS to finally obtain a solution containing 2% DMF. All emission spectra were obtained after 2 min stirring at 37° C. The excitation and emission slit widths were 3/5.

[2] = pH-dependent absorbance, pKa fitting; assay type: physicochemical; conditions: PBS (10 mM) with pH adjustment; absorbance at 405 nm, pH 2-10, PBS 10 mM
Method: The absorbance of IRI-1 (10 μM) was recorded in PBS (10 mM), with pH adjustment, to maintain a constant salt concentration.

[3] = target: T2, human serum albumin (HSA) (Homo sapiens, UniProt P02768); assay: Fluorescence in the presence of HSA; conditions: HSA 20 μM, PBS pH 7.4, 2% DMF
T2 construct: purchased
Method: as §2

[4] = Solubility of IRI-1 in PBS (absorbance at 405 nm); assay type: physicochemical; conditions: aqueous buffer, kinetic from dmso stock, PBS containing 2% DMSO, read-out: concentration up to which the dye exists as a monomer in PBS, above which soluble aggregates form
Method: The absorbance of IRI-1 at different concentrations in the 0-50 μM range was recorded at 405 nm in a PBS solution containing 2% DMSO. Deviation from linearity indicates the formation of aggregates.

Aβ fibrils = target: T3, Aβ fibrils (Homo sapiens, UniProt P05067); assay: Fluorescence response in the presence of Aβ fibrils; conditions: Aβ fibrils 20 μM versus PBS containing 2% DMF
T3 construct: lyophilized Aβ1-42 peptides were dissolved in 100% HFIP; purchased GenicBio Limited (Shanghai, China)
Method: as §2, §1

in vitro = conditions: PAMPA
Method: (§3) The BBB-PAMPA was conducted following the manufacturer's instructions (pION, Inc, MA, USA). […] The transmembrane side to the donor part was coated with BBB-lipid solution and 200 μL acceptor buffer was added in the upper chambers of the PAMPA sandwich plate. After incubation for 4 h at 25° C., all samples were transferred to a new U.V plate and then the U.V spectra were measured at a wavelength from 250 nm to 498 nm with a multifunctional microplate reader (Tecan, Infinite M200 Pro, San Jose, Calif., USA) and the permeability rate (Pe, 10^−6 cm/s) was determined using pION PAMPA Explorer software (ver3.8).

[5] = target: T4, bovine serum albumin (BSA) (Bos taurus, UniProt P02769); assay: Fluorescence in the presence of BSA; conditions: BSA 20 μM, PBS pH 7.4, 2% DMF
T4 construct: purchased
Method: as §2

Aβ plaques [6] = target: T5, Aβ plaques (Homo sapiens, UniProt P05067); assay: In vivo two-photon microscopy imaging; design: species or system 5xFAD-Tg mice; depth up to which individual Aβ plaques could be detected: unit not given here
T5 construct: from tissue; host or cells: brain of 5xFAD-Tg mice: ex vivo slices at 11 months, in vivo frontal cortex at 10-12 months
Method: All animal studies and maintenance were approved by the Institutional Animal Care and Use Committee (IACUC) of Seoul National University, Korea. 10-12-month-old 5xFAD (Tg6799; Jackson Lab Stock No. 006554) AD model mice were anesthetized with the mixture of Tiletamine-Zolazepam (Virbac, France) and Xylazine (Bayer Korea, Korea) via intramuscular (IM) injection (1.2 mg kg^−1) and then fixed on a customized stereotactic heating plate (37° C., Live cell instrument, Seoul, Korea). The mouse scalp was sterilized with Povidone Iodine (Firson, Korea) and then removed. A drop of Epinephrine was applied to the incision site to relieve local pain and bleeding. The periosteum was also removed in this step. When the scalp and periosteum were clearly removed and the skull dried, a small hole (3 mm diameter) was carefully made in the parietal bone with a microdrill. A 5 mm round coverslip was attached to the surgery site with Loctite 454 and dental acrylate was applied around the site. A solution of IRI-1 in 25% DMSO/PBS (5 mg kg^−1) was injected intraperitoneally (i.p.) before TPM imaging. TPM live imaging was conducted using an LSM 7 MP two-photon laser-scanning microscope (Carl Zeiss Microscopy GmbH, Germany) equipped with a Chameleon-Ultra-II laser system (Coherent, USA). An appropriately tuned laser (780-920 nm wavelength, 30 mW intensity) was applied to the imaging site transiently. Emission signals were obtained through the red channel (555-610 nm), or blue channel (485-490 nm) NDD filter set. TPM images were processed and 3D reconstructed using Volocity Software (Perkin-Elmer, Waltham, Mass., USA).

Photostability in DMF = assay type: physicochemical; conditions: solution in DMF, halogen lamp irradiation 35 min
Method: A solution of IRI-1 with an absorbance of 1.0 at the maximum absorbance wavelength was prepared in DMF. A 3100 K halogen lamp (Olympus LG-PS2; 12 V, 100 W) was used for irradiation and the absorbance was recorded at 5 min intervals for 35 min.

SH-SYSY cells = assay: Cell viability MTT assay; assay type: cell-based, human; conditions: concentrations up to 50 μM, 24 h
Method: Cell viability was assessed by the MTT (3-4,5-dimethylthiazol-2-yl)-2,5-diphenyltetrazolium bromide) assay. SH-SYSY cells (1×10^4 per well) were treated with various concentrations of IRI-1 in a 96-well plate for 24 h at 37° C.

Aβ plaques [7] = target: T5, Aβ plaques; assay: Ex vivo two-photon microscopy imaging of brain slices; design: species or system 5xFAD-Tg mice; conditions: 20 μM, 2 h incubation, n=15
Method: Brain tissues were isolated from 11-month-old 5xFAD-Tg mice. All animal protocols were approved by the Institutional Animal Care and Use Committee (IACUC) of KyungHee University, Korea (Approval number: KHUSAP (SE)-18-123). The isolated brain was immediately frozen with dry ice and horizontally sectioned by using a surgical blade (No. 10, […] safety razor Co., LTD, Japan). Sectioned brain tissues were immersed in a DMEM-buffered solution containing IBC 2 or IRI-1 (20 μM), and then incubated at 37° C. for different durations (0.5 h, 1 h and 2 h). After incubation, the brain tissues were washed with PBS (×3) and fixed in 4% paraformaldehyde solution until TPM imaging, using upright microscopy (Leica, Nussloch, Germany). […] TPM images were obtained by collecting the fluorescence from an emission channel of 580-779 nm. To compare the plaque and background signal of IBC 2 and IRI-1, TPM images analyzed by using Leica software. 15 Aβ-plaque regions as well as 15 background regions were randomly chosen for each dye at each incubation time. Bootstrap resampling (n=100,000) was performed on the 15 Aβ and background samples to estimate the population distribution of the signal to background ratios for each of the dyes at the different incubation times as well as to estimate the significance level of the difference of these population distributions.

[8] = Fluorescence in mouse brain homogenates
Method: as §2
Male ICR mice (10-weeks-old) from Daehan Biolink Co. Ltd. (Eumseong, Korea) were used in this experiment. The mice were accommodated at a constant temperature (23±1° C.), humidity (60±10%), and a 12 h light/dark cycle with free access to water and food. The mice were handled in accordance with the Principle of Laboratory Animal Care (NIH Publication No. 80-23; revised 1978) and the Animal Care and Use Guidelines of KyungHee University, Seoul, Korea (approval number: KHUASP(SE)-18-130). Mice were anesthetized with tribromoethanol (20 μL/g of body weight, Sigma Aldrich, USA) and then, the whole brain was removed quickly. After the washing with 0.1 M PBS, the brain tissue was excised by scissors and homogenized with a pellet pestles cordless motor (Sigma Aldrich, USA) in 2 mL of 0.1 M PBS (pH 7.4). The mixture was centrifuged at 1,000 g (Smart R17 Plus centrifuge, Hanil Scientific, Korea) for 15 min at 4° C. and the supernatant was collected. The pooled brain homogenates of 3 mice were collected and diluted to a final volume of 6 mL with PBS and used for fluorescence studies.

[9] = BBB-penetrability PAMPA assay
Method: as §3

[10] = pH 7.4, Permeability classification

T5 sequence (P05067 672-713 limits assumed): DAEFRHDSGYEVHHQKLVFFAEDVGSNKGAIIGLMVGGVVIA
T1 sequence (P05067 672-713 limits assumed): as above
T3 sequence (P05067 672-713 limits assumed): as above
T4 sequence (P02769 25-607): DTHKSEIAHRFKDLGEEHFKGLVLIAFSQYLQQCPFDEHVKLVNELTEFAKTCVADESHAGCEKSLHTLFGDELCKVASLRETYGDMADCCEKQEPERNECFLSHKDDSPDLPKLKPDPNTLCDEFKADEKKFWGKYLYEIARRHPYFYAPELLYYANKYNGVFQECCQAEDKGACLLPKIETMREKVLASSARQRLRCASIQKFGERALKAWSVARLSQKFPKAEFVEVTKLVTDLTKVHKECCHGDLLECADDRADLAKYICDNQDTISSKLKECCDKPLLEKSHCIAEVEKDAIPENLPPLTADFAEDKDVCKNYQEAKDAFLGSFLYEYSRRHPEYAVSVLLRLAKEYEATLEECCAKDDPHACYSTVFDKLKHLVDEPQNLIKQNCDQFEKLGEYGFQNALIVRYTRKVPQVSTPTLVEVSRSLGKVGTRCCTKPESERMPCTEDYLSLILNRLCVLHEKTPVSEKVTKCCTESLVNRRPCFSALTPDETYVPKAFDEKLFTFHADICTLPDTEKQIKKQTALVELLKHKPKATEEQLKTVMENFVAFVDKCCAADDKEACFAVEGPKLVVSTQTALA
T2 sequence (P02768 25-609): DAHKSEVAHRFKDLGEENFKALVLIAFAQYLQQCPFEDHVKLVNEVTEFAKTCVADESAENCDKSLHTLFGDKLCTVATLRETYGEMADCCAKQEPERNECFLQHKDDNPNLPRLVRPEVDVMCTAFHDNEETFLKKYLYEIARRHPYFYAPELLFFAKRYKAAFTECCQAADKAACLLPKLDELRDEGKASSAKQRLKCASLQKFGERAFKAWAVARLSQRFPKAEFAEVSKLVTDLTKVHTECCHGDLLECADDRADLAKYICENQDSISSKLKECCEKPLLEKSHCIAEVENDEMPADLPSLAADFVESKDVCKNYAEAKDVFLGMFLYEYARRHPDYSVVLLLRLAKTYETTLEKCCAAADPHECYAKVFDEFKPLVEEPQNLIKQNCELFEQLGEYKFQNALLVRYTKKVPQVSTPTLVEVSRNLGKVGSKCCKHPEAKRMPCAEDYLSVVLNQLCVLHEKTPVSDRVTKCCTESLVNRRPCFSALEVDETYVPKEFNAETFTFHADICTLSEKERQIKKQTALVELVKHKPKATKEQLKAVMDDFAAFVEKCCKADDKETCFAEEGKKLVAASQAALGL

CN(C)c1ccc(-c2ccc3cc(C#N)c(=N)oc3c2)cc1 [IRI-1]
Kd (Aβ fibrils (Aβ1-42); Aβ fibrils 10 μM, IRI-1 0-50 μM, PBS containing 2% DMF, nonlinear fitting, read-out: binding affinity toward Aβ fibrils, Kd): 374 ± 115 nM
N, number of equivalent binding sites on the Aβ fibril relative to Aβ monomer (Aβ fibrils (Aβ1-42); best fitting, one binding site per 4 Aβ1-42): ¼
binding affinity relative to that previously reported for ThT (Aβ fibrils (Aβ1-42); versus literature value for ThT): two- to three-folds stronger
fluorescent response to potential interferants [1]: no or negligible fluorescence enhancement
pKa [2]: 4.22 ± 0.12
fluorescence enhancement in the presence of HSA [3]: only relatively weak fluorescence enhancement
solubility [4]: 4.7 µM (≈ 1.36 µg/mL)
fluorescence enhancement in the presence of Aβ fibrils (Aβ fibrils): 167 fold
Papp at 4 h (in vitro; pH 7.4, Pe): 0.562 ± 0.053 ×10⁻⁶ cm/s
Papp at 4 h (in vitro; [10]): > 0.4 ×10⁻⁶ cm/s
fluorescence enhancement in the presence of BSA [5]: only relatively weak fluorescence enhancement
BBB penetration (Aβ plaques [6]; 5 mg kg^−1 i.p.): good BBB penetration
time to full saturation of fluorescence enhancement of Aβ plaques in the frontal cortex (Aβ plaques [6]; 5 mg kg^−1 i.p., excitation 920 nm): approximately 40 min
depth up to which individual Aβ plaques could be detected (Aβ plaques [6]; 3D two-photon imaging, 5 mg kg^−1 i.p.): ≤ 172
overlap of images with co-administered MeO-X04 (Aβ plaques [6]; co-administration, frontal cortex): near perfect overlap
resistance to photobleaching (Photostability in DMF): relatively high resistance to photobleaching
cytotoxicity (SH-SYSY cells): no significant toxicity
signal-to-background ratio, elevation compared to IBC-2 (Aβ plaques [7]): approximately 3.75 fold
fluorescence enhancement in the presence of mouse brain homogenates [8]: only relatively weak fluorescence enhancement

CC(=O)[C@H]1CC[C@H]2[C@@H]3CCC4=CC(=O)CC[C@]4(C)[C@H]3CC[C@]12C [Progesterone, reference compound]
Papp at 4 h (in vitro; pH 7.4, Pe): 39.5 ± 5.59 ×10⁻⁶ cm/s
Papp at 4 h (in vitro; [10]): > 0.4 ×10⁻⁶ cm/s

Cc1ccc2c(c1)sc(-c1ccc(N(C)C)cc1)[n+]2C.[Cl-] [Thioflavin T]
Permeability classification [9]: Not permeable
Pe ([9]; pH 7.4, 4 h at 25° C., mean and standard deviation, n = 3): 0^c 10^−6 cm/s
fluorescence enhancement in the presence of Aβ fibrils (Aβ fibrils): 20 fold
